{
  "source": "ChEMBL document CHEMBL3885881",
  "about": "“DrugMatrix”",
  "species": "Rattus norvegicus",
  "assay": "DrugMatrix - Regimen: Daily Repeat",
  "format": "toxicity, organism-based, Sprague-Dawley",
  "parameters": "regimen Daily Repeat, gender Male, age 6-8 weeks",
  "settings": "in vivo, po, 0 mg/kg, route oral GAVAGE, dose level Control, vehicle .5 % CMC; for ABSOLUTE BASOPHIL / ABSOLUTE EOSINOPHIL / ABSOLUTE LYMPHOCYTE / ABSOLUTE MONOCYTE / ABSOLUTE SEGMENTED NEUTROPHIL / BASOPHIL / EOSINOPHIL / ERYTHROCYTE COUNT / HEMATOCRIT / HEMOGLOBIN / LEUKOCYTE COUNT / LYMPHOCYTE / MEAN CORPUSCULAR HEMOGLOBIN / MEAN CORPUSCULAR HEMOGLOBIN CONCENTRATION / MEAN CORPUSCULAR VOLUME / MONOCYTE / NEUTROPHIL / NUCLEATED RED BLOOD CELLS / PLATELET COUNT: tissue Blood; for ALANINE AMINOTRANSFERASE / ALBUMIN / ALKALINE PHOSPHATASE / ASPARTATE AMINOTRANSFERASE / BLOOD UREA NITROGEN / CARBON DIOXIDE / CHLORIDE / CHOLESTEROL / CREATINE PHOSPHOKINASE / CREATININE / GLUCOSE / LACTATE DEHYDROGENASE / LIPASE / PHOSPHORUS / POTASSIUM / SODIUM / TOTAL BILIRUBIN / TOTAL PROTEIN / URIC ACID: tissue Plasma",
  "data": [
    {"smiles": "C[C@H]1O[C@@H](n2cc(F)c(=O)[nH]c2=O)[C@H](O)[C@@H]1O", "note": "[DOXIFLURIDINE]", "values": [
      {"measurement": "ABSOLUTE BASOPHIL", "setting": "72 h, time 3 day", "result": 0, "unit": "CELLS/uL"},
      {"measurement": "ABSOLUTE EOSINOPHIL", "setting": "72 h, time 3 day", "result": 0, "unit": "CELLS/uL"},
      {"measurement": "ABSOLUTE LYMPHOCYTE", "setting": "72 h, time 3 day", "result": 12191.17, "unit": "CELLS/uL"},
      {"measurement": "ABSOLUTE MONOCYTE", "setting": "72 h, time 3 day", "result": 183.17, "unit": "CELLS/uL"},
      {"measurement": "ABSOLUTE SEGMENTED NEUTROPHIL", "setting": "72 h, time 3 day", "result": 1192.33, "unit": "CELLS/uL"},
      {"measurement": "BASOPHIL", "setting": "72 h, time 3 day", "result": 0, "unit": "%"},
      {"measurement": "EOSINOPHIL", "setting": "72 h, time 3 day", "result": 0, "unit": "%"},
      {"measurement": "ERYTHROCYTE COUNT", "setting": "72 h, time 3 day", "result": 5.51, "unit": "x10E6/uL"},
      {"measurement": "HEMATOCRIT", "setting": "72 h, time 3 day", "result": 35.45, "unit": "%"},
      {"measurement": "HEMOGLOBIN", "setting": "72 h, time 3 day", "result": 13.82, "unit": "G/DL"},
      {"measurement": "LEUKOCYTE COUNT", "setting": "72 h, time 3 day", "result": 13.57, "unit": "x10E3/uL"},
      {"measurement": "LYMPHOCYTE", "setting": "72 h, time 3 day", "result": 89.83, "unit": "%"},
      {"measurement": "MEAN CORPUSCULAR HEMOGLOBIN", "setting": "72 h, time 3 day", "result": 25.1, "unit": "pg"},
      {"measurement": "MEAN CORPUSCULAR HEMOGLOBIN CONCENTRATION", "setting": "72 h, time 3 day", "result": 38.98, "unit": "G/DL"},
      {"measurement": "MEAN CORPUSCULAR VOLUME", "setting": "72 h, time 3 day", "result": 64.42, "unit": "fL"},
      {"measurement": "MONOCYTE", "setting": "72 h, time 3 day", "result": 1.33, "unit": "%"},
      {"measurement": "NEUTROPHIL", "setting": "72 h, time 3 day", "result": 8.83, "unit": "%"},
      {"measurement": "NUCLEATED RED BLOOD CELLS", "setting": "72 h, time 3 day", "result": "0 /100WBC"},
      {"measurement": "PLATELET COUNT", "setting": "72 h, time 3 day", "result": 1118.17, "unit": "x10E3/uL"},
      {"measurement": "ALANINE AMINOTRANSFERASE", "setting": "72 h, time 3 day", "result": 55, "unit": "u/L"},
      {"measurement": "ALBUMIN", "setting": "72 h, time 3 day", "result": 4.15, "unit": "G/DL"},
      {"measurement": "ALKALINE PHOSPHATASE", "setting": "72 h, time 3 day", "result": 449.5, "unit": "u/L"},
      {"measurement": "ASPARTATE AMINOTRANSFERASE", "setting": "72 h, time 3 day", "result": 112.83, "unit": "u/L"},
      {"measurement": "BLOOD UREA NITROGEN", "setting": "72 h, time 3 day", "result": 17.33, "unit": "mg/dL"},
      {"measurement": "CARBON DIOXIDE", "setting": "72 h, time 3 day", "result": 29.5, "unit": "mmol/L"},
      {"measurement": "CHLORIDE", "setting": "72 h, time 3 day", "result": 101, "unit": "MEQ/L"},
      {"measurement": "CHOLESTEROL", "setting": "72 h, time 3 day", "result": 70, "unit": "mg/dL"},
      {"measurement": "CREATINE PHOSPHOKINASE", "setting": "72 h, time 3 day", "result": 1325.83, "unit": "u/L"},
      {"measurement": "CREATININE", "setting": "72 h, time 3 day", "result": 0.18, "unit": "mg/dL"},
      {"measurement": "GLUCOSE", "setting": "72 h, time 3 day", "result": 171.5, "unit": "mg/dL"},
      {"measurement": "LACTATE DEHYDROGENASE", "setting": "72 h, time 3 day", "result": 386, "unit": "u/L"},
      {"measurement": "LIPASE", "setting": "72 h, time 3 day", "result": 10, "unit": "u/L"},
      {"measurement": "PHOSPHORUS", "setting": "72 h, time 3 day", "result": 11.57, "unit": "mg/dL"},
      {"measurement": "POTASSIUM", "setting": "72 h, time 3 day", "result": 6.21, "unit": "MEQ/L"},
      {"measurement": "SODIUM", "setting": "72 h, time 3 day", "result": 141.65, "unit": "MEQ/L"},
      {"measurement": "TOTAL BILIRUBIN", "setting": "72 h, time 3 day", "result": 0.15, "unit": "mg/dL"},
      {"measurement": "TOTAL PROTEIN", "setting": "72 h, time 3 day", "result": 5.75, "unit": "G/DL"},
      {"measurement": "URIC ACID", "setting": "72 h, time 3 day", "result": 1.28, "unit": "mg/dL"},
      {"measurement": "ABSOLUTE BASOPHIL", "setting": "120 h, time 5 day", "result": 0, "unit": "CELLS/uL"},
      {"measurement": "ABSOLUTE EOSINOPHIL", "setting": "120 h, time 5 day", "result": 138.17, "unit": "CELLS/uL"},
      {"measurement": "ABSOLUTE LYMPHOCYTE", "setting": "120 h, time 5 day", "result": 13283.17, "unit": "CELLS/uL"},
      {"measurement": "ABSOLUTE MONOCYTE", "setting": "120 h, time 5 day", "result": 303.83, "unit": "CELLS/uL"},
      {"measurement": "ABSOLUTE SEGMENTED NEUTROPHIL", "setting": "120 h, time 5 day", "result": 1308.17, "unit": "CELLS/uL"},
      {"measurement": "BASOPHIL", "setting": "120 h, time 5 day", "result": 0, "unit": "%"},
      {"measurement": "EOSINOPHIL", "setting": "120 h, time 5 day", "result": 1, "unit": "%"},
      {"measurement": "ERYTHROCYTE COUNT", "setting": "120 h, time 5 day", "result": 5.32, "unit": "x10E6/uL"},
      {"measurement": "HEMATOCRIT", "setting": "120 h, time 5 day", "result": 33.8, "unit": "%"},
      {"measurement": "HEMOGLOBIN", "setting": "120 h, time 5 day", "result": 13.63, "unit": "G/DL"},
      {"measurement": "LEUKOCYTE COUNT", "setting": "120 h, time 5 day", "result": 15.03, "unit": "x10E3/uL"},
      {"measurement": "LYMPHOCYTE", "setting": "120 h, time 5 day", "result": 88.33, "unit": "%"},
      {"measurement": "MEAN CORPUSCULAR HEMOGLOBIN", "setting": "120 h, time 5 day", "result": 25.68, "unit": "pg"},
      {"measurement": "MEAN CORPUSCULAR HEMOGLOBIN CONCENTRATION", "setting": "120 h, time 5 day", "result": 40.35, "unit": "G/DL"},
      {"measurement": "MEAN CORPUSCULAR VOLUME", "setting": "120 h, time 5 day", "result": 63.67, "unit": "fL"},
      {"measurement": "MONOCYTE", "setting": "120 h, time 5 day", "result": 1.83, "unit": "%"},
      {"measurement": "NEUTROPHIL", "setting": "120 h, time 5 day", "result": 8.83, "unit": "%"},
      {"measurement": "NUCLEATED RED BLOOD CELLS", "setting": "120 h, time 5 day", "result": "0 /100WBC"},
      {"measurement": "PLATELET COUNT", "setting": "120 h, time 5 day", "result": 1097.5, "unit": "x10E3/uL"},
      {"measurement": "ALANINE AMINOTRANSFERASE", "setting": "120 h, time 5 day", "result": 54.5, "unit": "u/L"},
      {"measurement": "ALBUMIN", "setting": "120 h, time 5 day", "result": 4.27, "unit": "G/DL"},
      {"measurement": "ALKALINE PHOSPHATASE", "setting": "120 h, time 5 day", "result": 337, "unit": "u/L"},
      {"measurement": "ASPARTATE AMINOTRANSFERASE", "setting": "120 h, time 5 day", "result": 94.67, "unit": "u/L"},
      {"measurement": "BLOOD UREA NITROGEN", "setting": "120 h, time 5 day", "result": 17, "unit": "mg/dL"},
      {"measurement": "CARBON DIOXIDE", "setting": "120 h, time 5 day", "result": 28.33, "unit": "mmol/L"},
      {"measurement": "CHLORIDE", "setting": "120 h, time 5 day", "result": 101.5, "unit": "MEQ/L"},
      {"measurement": "CHOLESTEROL", "setting": "120 h, time 5 day", "result": 71.33, "unit": "mg/dL"},
      {"measurement": "CREATINE PHOSPHOKINASE", "setting": "120 h, time 5 day", "result": 628.17, "unit": "u/L"},
      {"measurement": "CREATININE", "setting": "120 h, time 5 day", "result": 0.19, "unit": "mg/dL"},
      {"measurement": "GLUCOSE", "setting": "120 h, time 5 day", "result": 177.83, "unit": "mg/dL"},
      {"measurement": "LACTATE DEHYDROGENASE", "setting": "120 h, time 5 day", "result": 500.5, "unit": "u/L"},
      {"measurement": "LIPASE", "setting": "120 h, time 5 day", "result": 9.5, "unit": "u/L"},
      {"measurement": "PHOSPHORUS", "setting": "120 h, time 5 day", "result": 12.3, "unit": "mg/dL"},
      {"measurement": "POTASSIUM", "setting": "120 h, time 5 day", "result": 5.63, "unit": "MEQ/L"},
      {"measurement": "SODIUM", "setting": "120 h, time 5 day", "result": 143.03, "unit": "MEQ/L"},
      {"measurement": "TOTAL BILIRUBIN", "setting": "120 h, time 5 day", "result": 0.2, "unit": "mg/dL"},
      {"measurement": "TOTAL PROTEIN", "setting": "120 h, time 5 day", "result": 6.02, "unit": "G/DL"},
      {"measurement": "URIC ACID", "setting": "120 h, time 5 day", "result": 1.5, "unit": "mg/dL"}
    ]}
  ]
}
